Experimental data published in the NIST ThermoML archive (doi:10.1016/j.jct.2004.09.007).

Experiment: molar heat capacity at constant pressure; xn = mol fraction of the nth substance listed
Conditions: 101.3 kPa, Liquid, Large sample (1 g) DSC

CC(O)CCO (stereo not drawn) [1,3-butanediol] + CCCCO
molar heat capacity at constant pressure [J/K/mol]
Conditions | x1 = 0.189 | x1 = 0.2983 | x1 = 0.436 | x1 = 0.5902 | x1 = 0.7056 | x1 = 0.8961 | x1 = 1
285.15 K | 178.21 | 183.56 | 189.77 | 196.24 | 200.97 | 210.06 | 211.74
285.65 K | 178.59 | 183.85 | 190.08 | 196.61 | 201.4 | 208.67 | 212.17
288.15 K | 179.92 | 185.21 | 191.37 | 198 | 202.79 | 210.1 | 213.57
290.65 K | 181.38 | 186.6 | 192.85 | 199.46 | 204.22 | 211.53 | 215.06
293.15 K | 182.92 | 188.08 | 194.38 | 200.87 | 205.67 | 213 | 216.58
295.65 K | 184.43 | 189.64 | 195.81 | 202.4 | 207.15 | 214.51 | 218.04
298.15 K | 186.01 | 191.11 | 197.31 | 203.91 | 208.58 | 216.08 | 219.62
300.65 K | 187.6 | 192.65 | 198.88 | 205.47 | 210.16 | 217.6 | 221.14
303.15 K | 189.31 | 194.35 | 200.51 | 207.08 | 211.81 | 219.24 | 222.8
305.65 K | 191.04 | 195.99 | 202.12 | 208.6 | 213.36 | 220.73 | 224.37
308.15 K | 192.78 | 197.71 | 203.81 | 210.26 | 215.04 | 222.49 | 226.07
310.65 K | 194.41 | 199.34 | 205.42 | 211.86 | 216.58 | 224.04 | 227.65
313.15 K | 196.3 | 201.02 | 207.06 | 213.43 | 218.21 | 225.64 | 229.24
315.65 K | 198.07 | 202.81 | 208.71 | 215.01 | 219.75 | 227.18 | 230.82
318.15 K | 199.98 | 204.63 | 210.53 | 216.77 | 221.57 | 228.97 | 232.6
320.65 K | 201.89 | 206.47 | 212.31 | 218.48 | 223.19 | 230.61 | 234.14
323.15 K | 203.75 | 208.15 | 214.02 | 220.21 | 224.86 | 232.26 | 235.83
325.65 K | 205.57 | 210.02 | 215.77 | 221.9 | 226.54 | 233.95 | 237.52
328.15 K | 207.42 | 211.77 | 217.34 | 223.44 | 228.18 | 235.52 | 239.08
330.65 K | 209.47 | 213.61 | 219.1 | 225.17 | 229.9 | 237.35 | 240.59
333.15 K | 211.36 | 215.41 | 220.86 | 226.84 | 231.42 | 238.77 | 242.28
335.65 K | 213.23 | 217.15 | 222.54 | 228.47 | 232.95 | 240.35 | 243.86
338.15 K | 215.01 | 218.85 | 224.14 | 229.97 | 234.44 | 241.71 | 245.11
340.65 K | 217.62 | 220.95 | 226.11 | 231.92 | 236.35 | 243.67 | 247.19
343.15 K | 219.25 | 222.78 | 227.81 | 233.46 | 237.95 | 245.19 | 248.62
345.65 K | 221.09 | 224.51 | 229.58 | 235.21 | 239.85 | 246.7 | 250.13
348.15 K | 223.12 | 226.46 | 231.31 | 236.83 | 241.5 | 248.27 | 251.66
350.65 K | 224.98 | 228.29 | 232.97 | 238.43 | 242.73 | 249.77 | 253.24
353.15 K | 227.13 | 230.3 | 234.85 | 240.2 | 244.5 | 251.52 | 254.86
